Reference: ChEMBL document CHEMBL4619763 (J Nat Prod, 2020)
Calls of active or inactive are those of the source. The calls are words filed in the database; no cut-off is given here.

Columns and labels:
[1] = tested on: Rattus norvegicus; assay: Diuretic activity in normotensive Wistar rat assessed as increase in urine volume excretion at 1 mg/kg, ip a after 6 hr; type: functional, organism-based
[2] = tested on: Rattus norvegicus; assay: Diuretic activity in normotensive Wistar rat assessed as urine pH at 0.1 mg/kg, ip after 8 hrs (reference value: 6.05 +/- 0.22); type: functional
[3] = tested on: Rattus norvegicus; assay: Diuretic activity in normotensive Wistar rat assessed as urine conductivity at 0.01 mg/kg, po administered via gavage after 8 hrs (reference value: 19.54 +/- 0.98 mS/cm); type: functional
[4] = tested on: Rattus norvegicus; assay: Diuretic activity in normotensive Wistar rat assessed as urinary sodium excretion at 0.01 mg/kg, po administered via gavage after 8 hrs (reference value: 61.82 to 80.81 mmol/L); type: functional
[5] = tested on: Rattus norvegicus; assay: Diuretic activity in normotensive Wistar rat assessed as urinary sodium excretion at 1 mg/kg, po administered via gavage after 8 hrs (reference value: 61.82 to 80.81 mmol/L); type: functional
[6] = tested on: Rattus norvegicus; assay: Diuretic activity in normotensive Wistar rat assessed as urinary potassium excretion at 0.01 mg/kg, po administered via gavage after 8 hrs (reference value: 22.39 to 24.21 mmol/L); type: ADME, organism-based; settings: in vivo
[7] = tested on: Rattus norvegicus; assay: Diuretic activity in normotensive Wistar rat assessed as urinary potassium excretion at 0.01 mg/kg, ip […] after 8 hrs (reference value: 22.33 +/- 2.81 mmol/L); type: ADME, organism-based; settings: in vivo
[8] = tested on: Rattus norvegicus; assay: Diuretic activity in normotensive Wistar rat assessed as urinary chloride excretion at 0.01 mg/kg, po administered via gavage after 8 hrs (reference value: 135.10 to 143.70 mmol/L); type: functional
[9] = tested on: Rattus norvegicus; assay: Diuretic activity in normotensive Wistar rat assessed as urinary chloride excretion at 1 mg/kg, po administered via gavage after 8 hrs (reference value: 135.10 to 143.70 mmol/L); type: functional
[10] = tested on: Rattus norvegicus; assay: Diuretic activity in normotensive Wistar rat assessed as urinary calcium excretion at 1 mg/kg, ip […] after 8 hrs (reference value: 5.28 +/- 0.09 mg/dl); type: functional
[11] = tested on: Rattus norvegicus; assay: Diuretic activity in normotensive Wistar rat assessed as urine pH at 0.1 mg/kg, po administered via gavage after 8 hrs in presence of amiloride (reference value: 6.14 to 6.21); type: functional
[12] = tested on: Rattus norvegicus; assay: Diuretic activity in normotensive Wistar rat assessed as urine conductivity at 0.1 mg/kg, po administered via gavage after 8 hrs in presence of indomethacin (reference value: 19.54 +/- 0.98 mS/cm); type: functional
[13] = tested on: Rattus norvegicus; assay: Diuretic activity in normotensive Wistar rat assessed as urine conductivity at 0.1 mg/kg, po administered via gavage after 8 hrs in presence of atropine (reference value: 19.54 +/- 0.98 mS/cm); type: functional
[14] = tested on: Rattus norvegicus; assay: Diuretic activity in normotensive Wistar rat assessed as urine conductivity at 0.1 mg/kg, po administered via gavage after 8 hrs in presence of L-NAME (reference value: 19.54 +/- 0.98 mS/cm); type: functional
[15] = tested on: Rattus norvegicus; assay: Diuretic activity in normotensive Wistar rat assessed as urinary sodium excretion at 0.1 mg/kg, po administered via gavage after 8 hrs in presence of hydrochlorothiazide (reference value: 61.82 to 80.81 mmol/L); type: functional
[16] = tested on: Rattus norvegicus; assay: Diuretic activity in normotensive Wistar rat assessed as urinary sodium excretion at 0.1 mg/kg, po administered via gavage after 8 hrs in presence of indomethacin (reference value: 61.82 to 80.81 mmol/L); type: functional
[17] = tested on: Rattus norvegicus; assay: Diuretic activity in normotensive Wistar rat assessed as urinary potassium excretion at 0.1 mg/kg, po administered via gavage after 8 hrs in presence of furosemide (reference value: 22.39 to 24.21 mmol/L); type: ADME, organism-based; settings: in vivo
[18] = tested on: Rattus norvegicus; assay: Diuretic activity in normotensive Wistar rat assessed as urinary potassium excretion at 0.1 mg/kg, po administered via gavage after 8 hrs in presence of amiloride (reference value: 22.39 to 24.21 mmol/L); type: ADME, organism-based; settings: in vivo
[19] = tested on: Rattus norvegicus; assay: Diuretic activity in normotensive Wistar rat assessed as urinary chloride excretion at 0.1 mg/kg, po administered via gavage after 8 hrs in presence of amiloride (reference value: 135.10 to 143.70 mmol/L); type: functional
[20] = tested on: Rattus norvegicus; assay: Diuretic activity in normotensive Wistar rat assessed as urinary calcium excretion at 0.1 mg/kg, po administered via gavage after 8 hrs in presence of amiloride (reference value: 5.93 to 6.87 mg/dl); type: functional
[21] = tested on: Rattus norvegicus; assay: Diuretic activity in normotensive Wistar rat assessed as urinary calcium excretion at 0.1 mg/kg, po administered via gavage after 8 hrs in presence of L-NAME (reference value: 5.93 to 6.87 mg/dl); type: functional
[22] = tested on: Rattus norvegicus; assay: Diuretic activity in normotensive Wistar rat assessed as increase in urine volume at 0.1 mg/kg, po administered via gavage for 7 days; type: functional, organism-based
[23] = tested on: Rattus norvegicus; assay: Diuretic activity in spontaneous hypertensive Wistar rat assessed as increase in urine volume at 0.1 mg/kg, po administered via gavage for 7 days; type: functional, organism-based
[24] = tested on: Rattus norvegicus; assay: Diuretic activity in normotensive Wistar rat assessed as increase in urinary chloride excretion at 0.1 mg/kg, po administered via gavage for 7 days; type: functional, organism-based
[25] = Toxicity in normotensive Wistar rat assessed as changes in plasma potassium level at 0.1 mg/kg, po administered for 7 days; type: organism-based; settings: in vivo, 168 h
[26] = Toxicity in normotensive Wistar rat assessed as changes in plasma chloride level at 0.1 mg/kg, po administered for 7 days; type: organism-based; settings: in vivo, 168 h
[27] = Toxicity in normotensive Wistar rat assessed as changes in plasma calcium level at 0.1 mg/kg, po administered for 7 days; type: organism-based; settings: in vivo, 168 h
[28] = Toxicity in normotensive Wistar rat assessed as changes in plasma nitrite acid level at 0.1 mg/kg, po administered for 7 days; type: organism-based; settings: in vivo, 168 h
[29] = Toxicity in spontaneous hypertensive Wistar rat assessed as changes in plasma nitrite acid level at 0.1 mg/kg, po administered for 7 days; type: organism-based; settings: in vivo, 168 h
[30] = Toxicity in normotensive Wistar rat assessed as changes in urea level in urine at 0.1 mg/kg, po administered for 7 days; type: organism-based; settings: in vivo, 168 h
[31] = tested on: Rattus norvegicus; assay: Cardioprotective activity in spontaneous hypertensive Wistar rat assessed as effect on heart weight at 0.1 mg/kg, po administered for 7 days; type: functional, organism-based
[32] = Antioxidant activity assessed as DPPH radical scavenging activity at 100 to 1000 ug/ml after 5 mins; type: functional
[33] = tested on: Rattus norvegicus; assay: Anti-urolithic activity in normotensive Wistar rats assessed as reduction in CaOx crystal formation in cumulative urine at 0.1 mg/kg, po administered via gavage in presence of sodium oxalate by Neubauer counting chamber method relative to control; type: functional; set-up: scale not given: the % may be the effect or the level left
[34] = tested on: Rattus norvegicus; assay: Anti-urolithic activity in spontaneous hypertensive Wistar rats assessed as reduction in CaOx crystal formation in cumulative urine at 0.1 mg/kg, po administered via gavage in presence of sodium oxalate by Neubauer counting chamber method relative to control; type: functional; set-up: scale not given: the % may be the effect or the level left
[35] = Anti-urolithic activity in synthetic urine assessed as reduction in CaOx crystal formation at 0.1 mg/mL in presence of sodium oxalate after 60 mins by Neubauer counting chamber method relative to control; type: functional; set-up: scale not given: the % may be the effect or the level left
[36] = Anti-urolithic activity in synthetic urine assessed as decrease in absorption at 0.1 mg/mL relative to control; type: functional; set-up: scale not given: the % may be the effect or the level left

C[C@@H]1O[C@@H](Oc2c(-c3ccc(O)cc3)oc3cc(O)cc(O)c3c2=O)[C@H](O)[C@H](O)[C@H]1O [AFZELIN]
Activity [1]: Active | pH [2]: 5.89 | Activity [3]: 22.17 mS/cm | Activity [4]: 61.35 mmol/L | Activity [5]: 74.67 mmol/L | Activity [6]: 17.98 mmol/L | Activity [7]: 15.61 mmol/L | Activity [8]: 113.3 mmol/L | Activity [9]: 165.2 mmol/L | Activity [10]: 5.46 mg/dL | pH [11]: 6.26 | Activity [12]: 19.34 mS/cm | Activity [13]: 19.09 mS/cm | Activity [14]: 15.97 mS/cm | Activity [15]: 113.3 mmol/L | Activity [16]: 81.55 mmol/L | Activity [17]: 20.41 mmol/L | Activity [18]: 1.95 mmol/L | Activity [19]: 161.1 mmol/L | Activity [20]: 4.74 mg/dL | Activity [21]: 4.82 mg/dL | Activity [22]: Active | Activity [23]: Active | Activity [24]: Active | Activity [25]: Non-Toxic | Activity [26]: Non-Toxic | Activity [27]: Non-Toxic | Activity [28]: Non-Toxic | Activity [29]: Non-Toxic | Activity [30]: Non-Toxic | Activity [31]: inactive | Activity [32]: Active | Activity [33]: 41.3% | Activity [34]: 92.53% | Activity [35]: 48.88% | Activity [36]: 27.81%
